Test results published in patent US11548868B2, “Heterocyclic compounds, compositions comprising heterocyclic compound, and methods of use thereof” (JS INNOPHARM (SHANGHAI) LTD, priority 2017, dated 2023).

Tests used:
[1] = biological target: T1, TDO2 in A172 cancer cells (Homo sapiens, UniProt P48775); assay: TDO2 Cellular Assay (kynurenine production in A172 cancer cells); format: cell-based; settings: L-Trp 1 mM, 24 hours incubation, kynurenine at 490 nm
T1 construct: endogenous in cells; host or cells: A172 cancer cells
T1 sequence (P48775 whole entry): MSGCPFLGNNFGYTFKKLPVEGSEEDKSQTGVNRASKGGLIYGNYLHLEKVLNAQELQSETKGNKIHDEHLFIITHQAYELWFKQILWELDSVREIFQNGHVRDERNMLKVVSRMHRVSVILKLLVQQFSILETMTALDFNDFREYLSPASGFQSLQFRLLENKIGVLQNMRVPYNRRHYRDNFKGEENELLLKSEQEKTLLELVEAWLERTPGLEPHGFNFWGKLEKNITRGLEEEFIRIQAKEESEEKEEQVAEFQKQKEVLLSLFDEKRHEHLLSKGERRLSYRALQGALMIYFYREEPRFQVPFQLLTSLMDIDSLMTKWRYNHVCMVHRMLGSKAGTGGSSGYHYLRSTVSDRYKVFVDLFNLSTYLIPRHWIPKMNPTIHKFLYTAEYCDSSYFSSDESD
How it was run: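 Kynurenine output of A172 cells was read colorimetrically at 490 nm (Ehrlich reagent after TCA hydrolysis at 50 °C). Cells had 1 mM L-Trp plus compound at 0–25 μM in 0.25% DMSO for 24 h; IC50 values were fitted non-linearly from percent inhibition relative to vehicle.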

Recombinant human IDO1 = Recombinant human IDO1 (Homo sapiens, UniProt P14902); assay: IDO1 Enzymatic Assay; settings: recombinant human IDO1 40 nM, L-tryptophan 100 μM, 40 min room temperature, N′-formylkynurenine absorbance 321 nm; read-out: IDO1 biochemical activity*
Chain of Recombinant human IDO1 (P14902 whole entry): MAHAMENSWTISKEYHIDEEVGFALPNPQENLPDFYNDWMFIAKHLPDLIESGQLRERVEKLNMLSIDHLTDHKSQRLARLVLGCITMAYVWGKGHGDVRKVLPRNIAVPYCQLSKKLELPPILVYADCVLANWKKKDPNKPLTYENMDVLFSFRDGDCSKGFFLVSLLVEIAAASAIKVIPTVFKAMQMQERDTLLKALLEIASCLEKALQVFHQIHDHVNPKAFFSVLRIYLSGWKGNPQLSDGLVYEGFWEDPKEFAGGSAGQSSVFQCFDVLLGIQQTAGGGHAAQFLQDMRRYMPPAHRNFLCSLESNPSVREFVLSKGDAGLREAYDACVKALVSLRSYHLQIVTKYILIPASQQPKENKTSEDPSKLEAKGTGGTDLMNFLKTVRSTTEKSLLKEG
Experimental: (§1) The IDO1 biochemical inhibitory activity is determined by measuring the decrease in N′-formylkynurenine from tryptophan catalyzed by IDO1 enzyme. Recombinant human IDO1 (40 nM), L-tryptophan (100 μM), L-ascorbic acid (20 mM), methylene Blue (20 μM), catalase (0.2 mg/mL), and serial dilutions of the test compounds in a total volume of […] containing DMSO (with final DMSO concentration of 0.5%) and a pH 7.5 buffer containing potassium phosphate (50 mM) were added into each well in a 96-well plate. After incubation at room temperature for 40 min, the absorbance of the reaction mixture was read at 321 nm to measure the formation of N′-formylkynurenine by SpectraMax microplate reader. Percent inhibition of the test compounds was determined by measuring the decrease in N′-formylkynurenine as compared to the control of DMSO vehicle, which was calculated by formula of (WC−WT)/WC, where WC is the mean absorbance of the control well minus blank well; WT is the mean absorbance of the test well minus the blank well. Data was analyzed by GraphPad Prism 5 and the IC50 values were obtained by non-linear regression.
The IC50 values of IDO1 biochemical activity for the examples disclosed herein are listed in Table 2, A: ≤0.1 μM; B: >0.10 μM and ≤0.5 μM; C: >0.5 μM and ≤1.0 μM; and D: >1.0 μM.

Recombinant human TDO2 = Recombinant human TDO2 (Homo sapiens, UniProt P48775); assay: TDO2 Enzymatic Assay; format: biochemical; settings: recombinant human TDO2 200 nM, L-tryptophan 300 μM, 40 min room temperature, N′-formylkynurenine absorbance 321 nm; read-out: TDO2 bichemical activity*
Chain of Recombinant human TDO2 (P48775 whole entry): as the sequence (P48775 whole entry) above
Experimental: as §1, with “TDO2” for “IDO1”, “TDO2 (200” for “IDO1 (40”, “(300” for “(100”, “(WC-WT)/WC,” for “(WC−WT)/WC,”
The IC50 values of TDO2 biochemical activity for the examples disclosed herein are listed in Table 2, A: ≤0.1 μM; B: >0.10 μM and ≤0.5 μM; C: >0.5 μM and ≤1.0 μM; and D: >1.0 μM.

[2] = biological target: T2, IDO1 in Hela cancer cells (Homo sapiens, UniProt P14902); assay: IDO1 Cellular Assay (kynurenine production in IFN-γ stimulated Hela cancer cells); format: cell-based; settings: human IFN-γ 50 ng/mL, 48 hours incubation, kynurenine at 490 nm
T2 construct: endogenous in cells; host or cells: Hela cancer cells stimulated with human IFN-γ
T2 sequence (P14902 whole entry): as the sequence (P14902 whole entry) above
How it was run: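 HeLa cells stimulated with 50 ng/mL IFN-γ (final) and treated 48 h with compound (0–25 μM final, 0.25% DMSO). Supernatant kynurenine measured after TCA hydrolysis and p-dimethylaminobenzaldehyde reaction at 490 nm; inhibition vs DMSO control, IC50 by non-linear regression.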

| IC50 [1] [nM] | IC50 (Recombinant human IDO1) [nM] | IC50 (Recombinant human TDO2) [nM] | IC50 [2] [nM] | Structure (SMILES) |
| --- | --- | --- | --- | --- |
| 500 to 1000 | > 1000 | ≤ 100 | – | CC1(C)C2CN(c3cc(Cl)cc4[nH]ncc34)CC2CN1S(C)(=O)=O (single isomer, unassigned) [Example 1a] |
| > 5000 | > 1000 | – | – | Cn1ncc2c(N3CC4CCN(S(C)(=O)=O)C4C3)cc(Cl)cc21 (centres unmarked) [Example 20, 6-chloro-1-methyl-4-(1-(methylsulfonyl)hexahydropyrrolo[3,4-b]pyrrol-5(1H)-yl)-1H-indazole] |
| 1000 to 5000 | > 1000 | – | – | CS(=O)(=O)N[C@@H]1[C@@H]2CN(c3cc(Cl)cc4[nH]ncc34)C[C@@H]21 [Example 24, N-((1R,5S,6r)-3-(6-chloro-1H-indazol-4-yl)-3-azabicyclo[3.1.0]hexan-6-yl)methanesulfonamide] |
| ≤ 500 | 100 to 500 | ≤ 100 | > 5000 | CC1(C)C2CN(c3cc(Cl)cc4[nH]ncc34)CC2CN1S(C)(=O)=O (single isomer, unassigned) [Example 1b] |
| 500 to 1000 | > 1000 | – | – | CC1(C)C2CN(c3cc(Cl)cc4[nH]ncc34)CC2CN1C(=O)c1ccc(C#N)cc1 (centres unmarked) [Example 27, 4-(5-(6-chloro-1H-indazol-4-yl)-1,1-dimethyloctahydropyrrolo[3,4-c]pyrrole-2-carbonyl)benzonitrile] |
| 500 to 1000 | > 1000 | – | – | CC(=O)N1C[C@@H]2CN(c3cc(Cl)cc4[nH]ncc34)C[C@@H]2C1 [Example 14, 1-((3aR,6aS)-5-(6-chloro-1H-indazol-4-yl)hexahydropyrrolo[3,4-c]pyrrol-2(1H)-yl)ethanone] |
| 500 to 1000 | > 1000 | – | – | CS(=O)(=O)N1CCCC2CN(c3cc(Cl)cc4[nH]ncc34)CC21 (centres unmarked) [Example 13, 6-chloro-4-(1-(methylsulfonyl)hexahydro-1H-pyrrolo[3,4-b]pyridin-6(2H)-yl)-1H-indazole] |
| ≤ 500 | > 1000 | – | – | CC1(C)C2CN(c3cc(Cl)cc4[nH]ncc34)CC2CN1S(=O)(=O)C1CC1 (centres unmarked) [Example 28, 6-chloro-4-(5-(cyclopropylsulfonyl)-4,4-dimethylhexahydropyrrolo[3,4-c]pyrrol-2(1H)-yl)-1H-indazole] |
| ≤ 500 | 500 to 1000 | ≤ 100 | 1000 to 5000 | O[C@@]1(c2cc(Cl)cc3[nH]ncc23)C[C@H]2C[C@H]2C1 [Example 25, (1R,3r,5S)-3-(6-chloro-1H-indazol-4-yl)bicyclo[3.1.0]hexan-3-ol] |
| 1000 to 5000 | > 1000 | – | – | CC(=O)N[C@@H]1[C@@H]2CN(c3cc(Cl)cc4[nH]ncc34)C[C@@H]21 [Example 21, N-((1R,5S,6r)-3-(6-chloro-1H-indazol-4-yl)-3-azabicyclo[3.1.0]hexan-6-yl)acetamide] |
| 1000 to 5000 | > 1000 | – | – | CC(=O)NC1[C@H]2CN(c3cc(Cl)cc4[nH]ncc34)C[C@@H]12 (stereo partly drawn) [Example 17, N-((1R,5S)-3-(6-chloro-1H-indazol-4-yl)-3-azabicyclo[3.1.0]hexan-6-yl)acetamide] |
| 1000 to 5000 | > 1000 | – | – | CS(=O)(=O)NC1[C@H]2CN(c3cc(Cl)cc4[nH]ncc34)C[C@@H]12 (stereo partly drawn) [Example 16, N-((1R,5S)-3-(6-chloro-1H-indazol-4-yl)-3-azabicyclo[3.1.0]hexan-6-yl)methanesulfonamide] |
| ≤ 500 | > 1000 | – | – | CS(=O)(=O)N1C[C@H]2CN(c3cc(Cl)cc4[nH]ncc34)C[C@H]2C1 [Example 12, 6-chloro-4-((3aR,6aS)-5-(methylsulfonyl)hexahydropyrrolo[3,4-c]pyrrol-2(1H)-yl)-1H-indazole] |
| ≤ 500 | 500 to 1000 | ≤ 100 | – | CC(=O)N1CC2CN(c3cc(Cl)cc4[nH]ncc34)CC2C1(C)C (centres unmarked) [Example 18, 1-(5-(6-chloro-1H-indazol-4-yl)-1,1-dimethylhexahydropyrrolo[3,4-c]pyrrol-2(1H)-yl)ethanone] |
| ≤ 500 | 100 to 500 | ≤ 100 | 500 to 1000 | CS(=O)(=O)N1C[C@@H]2C[C@@](O)(c3cc(Cl)cc4[nH]ncc34)C[C@@H]2C1 [Example 2, (3aR,5r,6aS)-5-(6-chloro-1H-indazol-4-yl)-2-(methylsulfonyl)octahydrocyclopenta[c]pyrrol-5-ol] |
| ≤ 500 | > 1000 | ≤ 100 | > 5000 | CC(=O)N1C[C@@H]2C[C@@](O)(c3cc(Cl)cc4[nH]ncc34)C[C@@H]2C1 [Example 22, 1-((3aR,5r,6aS)-5-(6-chloro-1H-indazol-4-yl)-5-hydroxyhexahydrocyclopenta[c]pyrrol-2(1H)-yl)ethanone] |
| ≤ 500 | > 1000 | – | – | CC(=O)N1CCCC2CN(c3cc(Cl)cc4[nH]ncc34)CC21 (centres unmarked) [Example 15, 1-(6-(6-chloro-1H-indazol-4-yl)octahydro-1H-pyrrolo[3,4-b]pyridin-1-yl)ethanone] |
| 500 to 1000 | > 1000 | – | – | CS(=O)(=O)N1CCC2CN(c3cc(Cl)cc4[nH]ncc34)CC21 (centres unmarked) [Example 23, 6-chloro-4-(1-(methylsulfonyl)hexahydropyrrolo[3,4-b]pyrrol-5(1H)-yl)-1H-indazole] |
| 500 to 1000 | > 1000 | – | – | CC(=O)N1CCC2CN(c3cc(Cl)cc4[nH]ncc34)CC21 (centres unmarked) [Example 19, 1-(5-(6-chloro-1H-indazol-4-yl)hexahydropyrrolo[3,4-b]pyrrol-1(2H)-yl)ethanone] |
| ≤ 500 | – | – | ≤ 500 | O=C(Nc1ccc(Cl)cc1)N[C@H]1[C@@H]2C[C@@](O)(c3cc(Cl)cc4[nH]ncc34)C[C@@H]21 [Example 121, 1-((1R,3r,5S,6r)-3-(6-chloro-1H-indazol-4-yl)-3-hydroxybicyclo[3.1.0]hexan-6-yl)-3-(4-chlorophenyl)urea] |
| 1000 to 5000 | – | – | 1000 to 5000 | O=S(=O)(N[C@H]1[C@@H]2C[C@@](O)(c3cc(Cl)cc4cn[nH]c34)C[C@@H]21)C1CC1 [Example 110, N-((1R,3r,5S,6r)-3-(5-chloro-1H-indazol-7-yl)-3-hydroxybicyclo[3.1.0]hexan-6-yl)cyclopropanesulfonamide] |
| ≤ 500 | – | – | > 5000 | CCNC(=O)N[C@H]1[C@@H]2C[C@@](O)(c3cc(Cl)cc4[nH]ncc34)C[C@@H]21 [Example 125, 1-((1R,3r,5S,6r)-3-(6-chloro-1H-indazol-4-yl)-3-hydroxybicyclo[3.1.0]hexan-6-yl)-3-ethylurea] |
| ≤ 500 | – | – | 500 to 1000 | O=C(N[C@H]1[C@@H]2C[C@@](O)(c3cc(Cl)cc4[nH]ncc34)C[C@@H]21)c1ccnc2ccc(F)cc12 [Example 177, N-((1R,3r,5S,6r)-3-(6-chloro-1H-indazol-4-yl)-3-hydroxybicyclo[3.1.0]hexan-6-yl)-6-fluoroquinoline-4-carboxamide] |
